Entries after “also recorded” stand apart in the source; their conditions may differ. Structures can show the parent of a compound that is named as a salt.
Assays:
rat tail [1] = assay: Detergent-like effects at tail vein injection site in rats, repeated daily injection for 14 days (compound in Emulsion A); format: in vivo; conditions: for Sloughing of tissue, incidence: mild sloughing in various areas (Compound A) / small dots at injection sites (Compound B); for Ischemia, incidence: by/at 14 days; for Average gain in body weight: over 14 days; for Edema, incidence: tail vein, by/at day 14; for Edema, day of onset: majority of rats; for Edema, day of onset in single late rat: one rat; for Overall damage to the rat tail / negative effects: compared with other compound or other vehicles
Description: A commercial 10% intravenous fat emulsion having 5% safflower oil and 5% soybean oil, USP, i.e. "Liposyn II 10%" described above, hereinafter referred to as Emulsion A, is employed.
The test compound is suspended or dissolved in Emulsion A at a concentration of 28 mg/ml. Probe sonification is employed to make a homogenous drug suspension or solution.
Rats are injected with 0.1 ml/100 g body weight. Control animals are injected with Emulsion A alone at the same volume as drug treated rats.
Each rat is placed in a plastic restraining tube, leaving its tail exposed A warm water soaked gauze pad is placed on the tail for approximately 10 seconds to help dilate the tail vein. A 25 gauge needle attached to a 1 cc tuberculine syringe is used to administer drug/control to the rat. To assure proper administration of doses, a negative pressure is achieved by drawing back slowly on the plunger of the syringe. A flashback of blood into the hub of the needle indicates proper placement of the needle, and drug/control is then administered slowly to the rat. After administration of dose, needle is removed and pressure with a clean gauze pad applied for approximately 10 seconds to keep fluid from flowing out of injection site. The rat is returned to its cage and procedure repeated for each animal.
Body weight and visual observations for detergent-like effects are recorded each day and at the end of the 14 day period; particularly for edema, ischemia and necrosis.
Tests were run to observe detergent-like effects on laboratory rats using as active ingredient either 3-[2-[octadecylaminocarbonyloxymethyl-tetrahydrofuran-2-ylmethoxy)-hydroxy-phosphinyloxy]-ethane]-thiazolium hydroxide inner salt-4-oxide (as Compound A) or cis-1-(2-[hydroxy[[tetrahydro-5-[(octadecylaminocarbonyl)oxy]methyl]furan- 2-yl]methoxyphosphinyloxy]ethyl)-quinolinium hydroxide, inner salt-4-oxide (as Compound B). Each of Compounds A and B was administered to a group of 5 rats.
Each of the two compounds were tested at 28 mg/kg suspended in the 10% intravenous fat emulsion. Rats were injected once a day for 14 consecutive days and monitored for the aforementioned signs of tail morbidity.

rat tail [2] = assay: Previous tests: injection of standard water-based mixtures in rats' tails; format: in vivo; conditions: for Test halted because of detergent-like effects around the injection site: standard water-based mixtures, 25 mg/kg and over; for Reduction of detergent-like effects by adjustment of pH, or inclusion of buffers or serum albumin: water-based mixtures
[3] = 28 mg/kg once daily in Emulsion A, 14 days
[4] = 28 mg/kg once daily in Emulsion A

| SMILES | Edema, severity (rat tail [1]; [3]) | Ischemia, severity (rat tail [1]; [3]) | Necrosis, incidence (rat tail [1]; [3]) | Necrosis, severity / lesion size (rat tail [1]; [3]) | Slightly larger area of sloughing, incidence (rat tail [1]; [3]) | Sloughing of tissue, incidence (rat tail [1]; [3]) | Ischemia, incidence (rat tail [1]; [4]) | Average gain in body weight (rat tail [1]; [4]) | Edema, incidence (rat tail [1]; [4]) | Edema, day of onset (rat tail [1]; [4]) | Edema, day of onset in single late rat (rat tail [1]; [4]) | Period for which tests could be run (rat tail [1]; in Emulsion A) | Overall damage to the rat tail / negative effects (rat tail [1]; in Emulsion A, 14 days) | Test halted because of detergent-like effects around the injection site (rat tail [2]) | Reduction of detergent-like effects by adjustment of pH, or inclusion of buffers or serum albumin (rat tail [2]) | Animals having necrotic tissue (rat tail [1]; in Emulsion A, 14 days) | Animals with sloughing of necrotic tissue (rat tail [1]; in Emulsion A, 14 days) |
| --- | --- | --- | --- | --- | --- | --- | --- | --- | --- | --- | --- | --- | --- | --- | --- | --- | --- |
| CCCCCCCCCCCCCCCCCCNC(=O)OC[C@H]1CC[C@@H](COP(=O)([O-])OCC[n+]2cccc3ccccc32)O1 (relative stereo) [Compound B, cis-1-(2-[hydroxy[[tetrahydro-5-[(octadecylaminocarbonyl)oxy]methyl]furan-2-yl]methoxyphosphinyloxy]ethyl)-quinolinium hydroxide, inner salt-4-oxide] | mild edema | small areas of ischemia; also recorded: mild edema and ischemia | 5/5 | small areas of ischemia and necrosis; also recorded: very small areas; also recorded: necrotic lesions being much smaller | 1/5 | 2/5 | 5/5 | 29.6% | 5/5 | ~4 days | 10 days | 14 days | least amount of damage to the rat tail; also recorded: visibly better | forced to halt after only a few days | had not proven satisfactory |  |  |
| CCCCCCCCCCCCCCCCCCNC(=O)OCC1(COP(=O)([O-])OCC[n+]2ccsc2)CCCO1 (stereo not drawn) [Compound A] | moderate edema | moderate edema and ischemia | All rats had mottled necrotic areas |  |  | 3/4 | All rats displayed ischemia of entire tail | 24% | All rats showed some amount of edema | 2 to 4 days | 13 days | 14 days | greatly reduced the negative effects | forced to halt after only a few days | had not proven satisfactory | 100% | 75% |

From patent publication US5010067A, “Triglyceride-water emulsion pharmaceutical vehicles” (Sandoz Pharmaceuticals Corp., priority 1988, dated 1991)
